Measurements published in US20090227487A1, “METHODS FOR THE CONTROL OF MACROPHAGE-ASSOCIATED INFLAMMATION” (priority 2008, published 2009).

What was measured:
Assay type in all cases: cell-based, murine
Raw 264.7 macrophages [1] = test: LPS-induced TNF-α release from macrophages with or without polymyxin B (ELISA); conditions: 12 h
Method: (§1) Polymyxin B preparation: Polymyxin B was prepared fresh before each use and added to cell cultures at a concentration of 10 μg/ml.
Raw264.7 macrophage cell culture experiments: The murine monocyte/macrophage cell line Raw 264.7 was cultured in DMEM containing 10% (v/v) FBS (5% CO2, 37° C.). Cells were plated in 24-well tissue culture plates at 1×10^5 cells/well in 1 ml of media with serum and allowed to adhere for 24 hours. The media was then replaced with 1 ml of media containing one of four conditions: 1) media alone; 2) 10 μg/ml of polymyxin B; 3) 500 pg/ml of LPS (E. coli 055:B5, Sigma); 4) 500 pg/ml LPS and 10 μg/ml polymyxin B. TNF-α release was measured at 12 h after incubation using ELISA. Each group was plated in triplicate and the experiment was repeated two times. Data were analyzed by ANOVA. A p-value <0.05 was considered significant.

Raw 264.7 macrophages [2] = test: PMMA particle-induced TNF-α release from macrophages with or without polymyxin B (ELISA); conditions: 0.30% PMMA particles plus 10 μg/ml polymyxin B
Method: (§2) Preparation of particles: PMMA particles were washed 5× with 70% ethanol and incubated overnight with shaking at 4° C. The particles were then washed 3× with DPBS and resuspended to a concentration of 16% v/v. The particles were free of endotoxin using a high-sensitivity Limulus amoebocyte lysate assay (BioWhittaker).
as §1
Quantification of TNF-α release with wear debris particles: Macrophages were cultured as above. The media was then replaced with 1 ml of media containing one of three conditions: 1) media alone; 2) PMMA particles at a dose of 0.30% v/v; 3) 0.30% PMMA particles plus 10 μg/ml of polymyxin B. TNF-α levels were measured at 1, 4, and 12 hours post challenge.

Raw 264.7 macrophages [3] = test: PMMA particle-induced TNF-α release from macrophages preincubated with MyD88 inhibitory peptide or control peptide (ELISA); conditions: 100 μM peptide, 24 h preincubation, PMMA particles 0.30% v/v, p<0.01
Method: MyD88 inhibitory peptide experiments: The murine monocyte/macrophage cell line Raw 264.7 was cultured in DMEM containing 10% (v/v) FBS (5% CO2, 37° C.). Cells were plated in 24-well tissue culture plates at 1×10^5 cells/well in 1 ml of media with serum and allowed to adhere for 24 hours. […] Following the preincubation period in each group, PMMA particles (Polysciences, 1-10 μm) were added at a dose of 0.30% v/v. Each group was plated in triplicate and the experiment was repeated three times.
Quantification of TNF-α release: Macrophages were exposed to PMMA particles and samples from the culture media were collected at 1, 4, and 12 hours post challenge. TNF-α levels were quantified using ELISA kits. Data were analyzed by ANOVA.
as §2

Row | Substance | TNF-α levels (Raw 264.7 macrophages [1]; 500 pg/ml LPS plus 10 μg/ml polymyxin B) | TNF-α release compared to macrophages alone (Raw 264.7 macrophages [1]; 10 μg/ml polymyxin B alone, no LPS) | effect on particle-induced TNF-α release (Raw 264.7 macrophages [2]; 4 h) | decrease of particle-induced TNF-α release (Raw 264.7 macrophages [2]; 12 h, non-significant) | effect on particle-induced TNF-α release (Raw 264.7 macrophages [2]; overall statement) | decrease of particle-induced TNF-α release (Raw 264.7 macrophages [3]; 4 h post challenge) | decrease of particle-induced TNF-α release (Raw 264.7 macrophages [3]; 12 h post challenge)
1 | Polymyxin B | 1120 pg/mL | no significant difference | did not alter | 25% | no significant effect |  | 
2 | MyD88 inhibitory peptide: MyD88 homodimerization inhibitory peptide (Imgenex), which binds the MyD88 monomer, blocking MyD88 activation; possibly DRQIKIWFQNRRMKWKKRDVLPGT of b57 |  |  |  |  |  | 63% | 32%
